Results reported in paper PMC7996328, “Design, Synthesis, and Biological Evaluation of a Series of 5- and 7-Hydroxycoumarin Derivatives as 5-HT1A Serotonin Receptor Antagonists” (Pharmaceuticals, 2021).
Entries after “also recorded” stand apart in the source; their conditions may differ. Where two headings read alike, the source gives them in different places.

How the values were obtained:
5-HT1A receptor [1] = target: T1, 5-HT1A receptor (Rattus norvegicus, UniProt P19327); experiment: G-protein enhancing (agonist) effect at the 5-HT1A receptor; assay type: biochemical
T1 construct: Hippocampal homogenates (15 μg/mL) were added to each tube as the 5-HT1A receptor source; from tissue; host or cells: rat hippocampus (male Sprague-Dawley), membrane homogenate
T1 sequence (P19327 1-422): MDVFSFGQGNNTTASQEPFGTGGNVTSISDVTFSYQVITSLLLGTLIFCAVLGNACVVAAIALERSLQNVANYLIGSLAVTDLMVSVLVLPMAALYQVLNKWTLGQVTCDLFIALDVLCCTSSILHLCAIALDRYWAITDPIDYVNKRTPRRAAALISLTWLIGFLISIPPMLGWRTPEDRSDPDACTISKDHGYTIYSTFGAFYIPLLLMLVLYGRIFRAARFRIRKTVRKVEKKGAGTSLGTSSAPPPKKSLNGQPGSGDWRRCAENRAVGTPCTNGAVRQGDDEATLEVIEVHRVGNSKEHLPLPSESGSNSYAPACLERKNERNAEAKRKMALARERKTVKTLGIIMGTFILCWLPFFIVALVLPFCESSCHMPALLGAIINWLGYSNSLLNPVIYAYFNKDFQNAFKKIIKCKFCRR

5-HT1A receptor [2] = target: T1, 5-HT1A receptor; experiment: Antagonist activity for the 5-HT1A receptor, [35S]GTPγS assay in hippocampal homogenates; assay type: biochemical; settings: 8-OH-DPAT 1.4 × 10^−7 M, mean ± SEM
Description: Male Sprague–Dawley rats were decapitated, their brains removed, and placed on ice. Hippocampi were dissected and homogenized with a glass homogenizer in 30 vol. ice-cold TED buffer (50 mM Tris-HCl, 1 mM EDTA, 1mM dithiotheritol, pH 7.4). Next, the homogenate was centrifuged at 21,000× g for 30 min at 4 °C. […] The suspension was centrifuged again at 21,000× g for 30 min at 4 °C. The pellet was resuspended in 30 vol. TED buffer (pH 7.4) and the centrifugation step was repeated. The final pellet was suspended in 10 vol 50 mM Tris-HCl (pH 7.4) and stored at −80 °C until use.
Serial dilutions of the compounds tested (10^−10–10^−5 M) were incubated in triplicate with 0.8 nM [^35S]GTPγS in assay buffer (50 mM Tris-HCl, pH = 7.4, 1 mM EGTA, 3 mM MgCl2, 100 mM NaCl, 30 µM GDP) and 8-OH-DPAT (final concentration 1.4 × 10^−7 M) in the final assay volume of 250 µL. Hippocampal homogenates (15 μg/mL) were added to each tube as the 5-HT1A receptor source. […] Non-specific binding was determined with 10 µM of unlabeled GTPγS. […] Next, 96-well Unifilter® Plates (Perkin Elmer, Waltham, MA, USA) were presoaked for 1 h with 50 mM Tris-HCl (pH = 7.4) before harvesting. The reaction was terminated by vacuum filtration onto filter plates with the FilterMate Harvester® (Perkin Elmer, Waltham, MA, USA). The samples were then rapidly washed with 2 mL of 50 mM Tris-HCl (pH = 7.4) buffer. Filter plates were dried for 2 h at 50 °C. After drying, 45 µL of EcoScint-20 scintillant (Perkin Elmer) was added to every well. Radioactivity was counted in a Trilux MicroBeta^2 counter (Perkin Elmer). Data were analyzed with GraphPad Prism 5.0 software (GraphPad Software, San Diego, CA, USA, www.graphpad.com). Curves were fitted with a one-site non-linear regression model. Efficacy (Emax) and half maximal inhibitory concentration (IC50) were calculated from the Cheng–Prusoff equation and expressed as means ± SEM.

5-HT2A receptor = target: T2, 5-HT2A receptor (Rattus norvegicus, UniProt P14842); experiment: 5-HT2A competition binding assay, [3H]ketanserin, frontal cortex homogenates; settings: [3H]ketanserin 1 nM
T2 construct: from tissue; host or cells: rat frontal cortex (male SD), membrane homogenate
T2 sequence (P14842 whole entry): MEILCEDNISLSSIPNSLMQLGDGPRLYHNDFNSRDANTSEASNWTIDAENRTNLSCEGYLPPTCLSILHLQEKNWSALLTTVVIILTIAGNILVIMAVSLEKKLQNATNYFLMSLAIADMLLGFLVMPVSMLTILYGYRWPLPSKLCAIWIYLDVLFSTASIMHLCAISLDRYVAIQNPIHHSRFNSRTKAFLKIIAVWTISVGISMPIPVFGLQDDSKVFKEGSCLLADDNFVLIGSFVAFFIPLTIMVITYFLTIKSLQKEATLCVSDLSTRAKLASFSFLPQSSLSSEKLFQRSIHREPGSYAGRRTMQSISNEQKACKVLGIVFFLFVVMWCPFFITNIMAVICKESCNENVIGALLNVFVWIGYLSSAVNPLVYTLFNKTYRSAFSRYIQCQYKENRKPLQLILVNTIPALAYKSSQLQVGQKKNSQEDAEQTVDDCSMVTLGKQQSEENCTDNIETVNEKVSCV
Description: Male SD rats were decapitated and their brains removed and placed on ice. Frontal cortices were homogenized with a glass homogenizer in 30 vol ice-cold homogenization buffer (50 mM Tris-HCl. 1 mM EDTA. 5 mM MgCl2. pH 7.4). Next, the homogenate was centrifuged at 20,000× g for 15 min at 4 °C. […] The suspension was again centrifuged at 20,000× g for 15 min at 4 °C. The pellet was resuspended in 10 vol. 50 mM Tris-HCl (pH 7.4) and the centrifugation step was repeated. The final pellet was suspended in 10 vol 50 mM Tris-HCl (pH 7.4) and stored at −80 °C.
Non-specific binding was determined in the presence of 10 μM mianserin. After incubation, the reaction mixture was deposited onto UniFilter-96 GF/B plates with the aid of a FilterMate-96 Harvester. Filter plates were presoaked beforehand with 0.4% PEI for 1 h. Next, each filter well was washed with 1.75 mL of 50 mM Tris-HCl (pH 7.4) and left to dry on a heating block set to 50 °C for 2 h. Then 45 µL of Microscint-20 scintillation fluid was added to each filter well and left to equilibrate overnight. Filter-bound radioactivity was counted in a MicroBeta^2 Microplate Counter. Binding curves were fitted with one site non-linear regression. Affinity was presented as the inhibitory constant (pKi ± SEM and Ki ± SEM) from two or three separate experiments.

[3] = read-out: Ki (nM ± SEM) (converted)

Emax (5-HT1A receptor [1]; G-protein enhancing effect, 5-HT1A)	EC50 (5-HT1A receptor [1]; G-protein enhancing effect, 5-HT1A, read-out: EC50 (nM ± SEM))	functional character at the 5-HT1A receptor (5-HT1A receptor [1]; in words)	pIC50 ± SEM (5-HT1A receptor [2])	SMILES	melting point	IC50 (5-HT1A receptor [2])	EC50 (5-HT1A receptor [2]; antagonistic activity)	Ki (5-HT2A receptor; [3])	Ki (5-HT2A receptor; read-out: pKi (M ± SEM) (converted))	EC50 (nM ± SEM) (5-HT1A receptor [2]; antagonistic activity)
118 ± 1.48%	179 ± 39.3 nM	weak partial agonists		Cc1cc(OCCN2CCN(c3cccc(F)c3)CC2)c2c(C)cc(=O)oc2c1 [Compound 2e, 5-(2-(4-(3-fluorophenyl)piperazin-1-yl)ethoxy)-4,7-dimethyl-2H-chromen-2-one]	120 to 122 °C					
				COc1cccc(N2CCN(CCCCCOc3c(C(C)=O)c(C)cc4oc(=O)cc(C)c34)CC2)c1 [Compound 3c, 6-acetyl-5-(5-(4-(3-methoxyphenyl)piperazin-1-yl)pentyloxy)-4,7-dimethyl-2H-chromen-2-one]	86 to 88 °C	1.58 µM	1550 ± 190 nM	492 ± 99.7 nM		
				CC(=O)c1c(C)cc2oc(=O)cc(C)c2c1OCCCCCN1CCN(c2cc(C)ccc2C)CC1 [Compound 3d, 6-acetyl-5-(5-(4-(2,5-dimethylphenyl)piperazin-1-yl)pentyloxy)-4,7-dimethyl-2H-chromen-2-one]	97 to 99 °C	10 µM	9430 ± 1040 nM	1940 ± 388 nM		
				CC(=O)c1c(OCCN2CCN(c3cccc(Cl)c3Cl)CC2)ccc2c(C)cc(=O)oc12 [Compound 6i, 8-acetyl-7-(2-[4-(2,3-dichlorophenyl)piperazin-1-yl]ethoxy)-4-methylchromen-2-one]	159 to 161 °C	200 µM	204000 nM	755 ± 178 nM		
				COc1cccc(N2CCN(CCOc3cc(C)cc4oc(=O)cc(C)c34)CC2)c1 [Compound 2c, 5-(2-(4-(3-methoxyphenyl)piperazin-1-yl)ethoxy)-4,7-dimethyl-2H-chromen-2-one]	124 to 125 °C	20 µM	19100 nM	458 ± 109 nM	468 nM	
				CC(=O)c1c(C)cc2oc(=O)cc(C)c2c1OCCN1CCN(c2ccccc2F)CC1 [Compound 4b, 6-acetyl-5-(2-(4-(2-fluorophenyl)piperazin-1-yl)ethoxy)-4,7-dimethyl-2H-chromen-2-one]	118 to 119 °C	5.01 µM	5000 ± 218 nM	7050 ± 1650 nM		
			no activity	Cc1cc(C)cc(N2CCN(CCOc3cc(C)cc4oc(=O)cc(C)c34)CC2)c1 [Compound 2h, 5-(2-(4-(3,5-dimethylphenyl)piperazin-1-yl)ethoxy)-4,7-dimethyl-2H-chromen-2-one]	149 to 150 °C			2920 ± 992 nM		did not show any activity; also recorded: no activity
				COc1ccccc1N1CCN(CCCCCOc2ccc3c(C)cc(=O)oc3c2C(C)=O)CC1 [Compound 5a, 8-acetyl-7-(5-[4-(2-methoxyphenyl)piperazin-1-yl]penthoxy)-4-methylchromen-2-one]	126 to 128 °C	0.0316 µM	30.5 ± 2.56 nM	343 ± 86 nM		
				Cc1cc(OCCCCCN2CCN(c3ccccc3F)CC2)c2c(C)cc(=O)oc2c1 [Compound 1b, 5-(5-(4-(2-fluorophenyl)piperazin-1-yl)pentyloxy)-4,7-dimethyl-2H-chromen-2-one]	106 to 108 °C	1 µM	980 ± 207 nM	1260 ± 479 nM		
				Cc1cc(OCCCCCN2CCN(c3ccccc3C#N)CC2)c2c(C)cc(=O)oc2c1 [Compound 1j, 5-(5-(4-(2-cyanophenyl)piperazin-1-yl)pentyloxy)-4,7-dimethyl-2H-chromen-2-one]	148 to 149 °C	79.4 µM	74700 nM	79 ± 18 nM		
				CC(=O)c1c(OCCCCCN2CCN(c3ccccc3F)CC2)ccc2c(C)cc(=O)oc12 [Compound 5b, 8-acetyl-7-(5-[4-(2-fluorophenyl)piperazin-1-yl]penthoxy)-4-methylchromen-2-one]	95 to 97 °C	0.0794 µM	82 ± 13.4 nM	122 ± 43 nM		
				COc1ccccc1N1CCN(CCOc2ccc3c(C)cc(=O)oc3c2C(C)=O)CC1 [Compound 6a, 8-acetyl-7-(2-[4-(2-methoxyphenyl)piperazin-1-yl]ethoxy)-4-methylchromen-2-one]	157 to 159 °C	3.16 µM	2740 ± 626 nM	752 ± 171 nM		
				COc1ccccc1N1CCN(CCOc2cc(C)cc3oc(=O)cc(C)c23)CC1 [Compound 2a, 5-(2-(4-(2-methoxyphenyl)piperazin-1-yl)ethoxy)-4,7-dimethyl-2H-chromen-2-one]	146 to 148 °C	2 µM	1880 ± 427 nM	1710 ± 582 nM		
				CC(=O)c1c(OCCN2CCN(c3ccccc3C#N)CC2)ccc2c(C)cc(=O)oc12 [Compound 6j, 8-acetyl-7-(2-[4-(2-cyanophenyl)piperazin-1-yl]ethoxy)-4-methylchromen-2-one]	155 to 157 °C	7.94 µM	7800 ± 1880 nM	496 ± 121 nM		
				CC(=O)c1c(C)cc2oc(=O)cc(C)c2c1OCCN1CCN(c2cccc(Cl)c2Cl)CC1 [Compound 4i, 6-acetyl-5-(2-(4-(2,3-dichlorophenyl)piperazin-1-yl)ethoxy)-4,7-dimethyl-2H-chromen-2-one]	162 to 163 °C	3.16 µM	3100 ± 148 nM	1640 ± 344 nM		
				CC(=O)c1c(C)cc2oc(=O)cc(C)c2c1OCCN1CCN(c2ccccc2Br)CC1 [Compound 4f, 6-acetyl-5-(2-(4-(2-bromophenyl)piperazin-1-yl)ethoxy)-4,7-dimethyl-2H-chromen-2-one]	83 to 85 °C	8.32 µM	8320 ± 1500 nM	10600 nM		
				CC(=O)c1c(C)cc2oc(=O)cc(C)c2c1OCCCCCN1CCN(c2cccc(Br)c2)CC1 [Compound 3g, 6-acetyl-5-(5-(4-(3-bromophenyl)piperazin-1-yl)pentyloxy)-4,7-dimethyl-2H-chromen-2-one]	100 to 102 °C	1.29 µM	1280 ± 254 nM	664 ± 154 nM		
				CC(=O)c1c(OCCCCCN2CCN(c3cccc(F)c3)CC2)ccc2c(C)cc(=O)oc12 [Compound 5e, 8-acetyl-7-(5-[4-(3-fluorophenyl)piperazin-1-yl]penthoxy)-4-methylchromen-2-one]	117 to 119 °C	31.6 µM	33900 nM	2110 ± 420 nM		
				Cc1cc(OCCN2CCN(c3cccc(Cl)c3Cl)CC2)c2c(C)cc(=O)oc2c1 [Compound 2i, 5-(2-(4-(2,3-dichlorophenyl)piperazin-1-yl)ethoxy)-4,7-dimethyl-2H-chromen-2-one]	142 to 145 °C	398 µM	366000 nM	4310 ± 1550 nM		
